Assay results as given in US10745382B2 (BRISTOL-MYERS SQUIBB COMPANY, priority 2015, dated 2020).

Each molecule was assayed against T1, PD-1/PD-L1 (Homo sapiens, UniProt Q9NZQ7) (assay: PD-1/PD-L1 Homogenous Time-Resolved Fluorescence (HTRF) binding assay). Details: PD-L1-His 10 nM, PD-1-Ig 20 nM; value given as range class; read-out: Range or IC50.
T1 construct: made in house; host or cells: HEK293T
How it was run: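 Binding measured in dPBS with 0.1% BSA and 0.05% Tween-20, detected by HTRF with europium cryptate anti-Ig (1 nM final) and APC anti-His (20 nM final) added over the binding reaction. Counter-assays used human PD-1-Ig/PD-L2-His (20 and 5 nM) and CD80-His/PD-L1-Ig (100 and 10 nM).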

T1 sequence (Q9NZQ7 with tags, fused parts or gaps): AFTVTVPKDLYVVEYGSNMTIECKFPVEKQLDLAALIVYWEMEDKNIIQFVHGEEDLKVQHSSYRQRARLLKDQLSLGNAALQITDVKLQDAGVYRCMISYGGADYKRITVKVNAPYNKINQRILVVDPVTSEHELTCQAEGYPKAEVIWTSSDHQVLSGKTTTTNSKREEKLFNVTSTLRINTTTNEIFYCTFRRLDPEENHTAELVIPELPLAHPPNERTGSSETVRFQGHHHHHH

Row | IC50 [nM] | SMILES
1 | 0.21 to 10 | Cc1c(COc2cc(OCc3cncc(C#N)c3)c(CN[C@@](C)(CO)C(=O)O)cc2Cl)cccc1-c1cccc(OCCCN2CC[C@@H](O)C2)c1C(F)F [Example 1514, (S)-2-((5-chloro-2-((5-cyanopyridin-3-yl)methoxy)-4-((2′-(difluoromethyl)-3′-(3-((R)-3-hydroxypyrrolidin-1-yl)propoxy)-2-methyl-[1,1′-biphenyl]-3-yl)methoxy)benzyl)amino)-3-hydroxy-2-methylpropanoic acid]
2 | 0.21 to 10 | COC(=O)C1(C)CCCCN1Cc1cc(Cl)c(OCc2cccc(-c3cccc(OCCCN4CC[C@@H](O)C4)c3C)c2C)cc1OCc1cncc(C#N)c1 (stereo partly drawn) [Example 3069, methyl 1-(5-chloro-2-((5-cyanopyridin-3-yl)methoxy)-4-((3′-(3-((R)-3-hydroxypyrrolidin-1-yl)propoxy)-2,2′-dimethyl-[1,1′-biphenyl]-3-yl)methoxy)benzyl)-2-methylpiperidine-2-carboxylate]
3 | 0.21 to 10 | CCOC(=O)[C@H](CO)NCc1cc(Cl)c(OCc2cccc(-c3cccc(OCCCN4CC[C@@H](O)C4)c3C)c2C)cc1OCc1cncc(C#N)c1 [Example 3066, (S)-ethyl 2-((5-chloro-2-((5-cyanopyridin-3-yl)methoxy)-4-((3′-(3-((R)-3-hydroxypyrrolidin-1-yl)propoxy)-2,2′-dimethyl-[1,1′-biphenyl]-3-yl)methoxy)benzyl)amino)-3-hydroxypropanoate]
4 | 0.21 to 10 | Cc1c(COc2cc(OCc3cncc(C#N)c3)c(CN[C@](C)(CO)C(=O)O)cc2Cl)cccc1-c1cccc(OCCCN2CCC(O)C2)c1C (stereo in doubt) [Example 3005, (R)-2-((5-chloro-2-((5-cyanopyridin-3-yl)methoxy)-4-((3′-(3-((R)-3-hydroxypyrrolidin-1-yl)propoxy)-2,2′-dimethyl-[1,1′-biphenyl]-3-yl)methoxy)benzyl)amino)-3-hydroxy-2-methylpropanoic Acid]
5 | 10 to 100 | Cc1c(COc2cc(OCc3cncc(C#N)c3)c(CN3CCCC[C@H]3C(=O)O)cc2Cl)cccc1-c1cccc(OCCCN2CCC(O)C2)c1C(F)(F)F (stereo in doubt) [Example 3014, (S)-1-(5-chloro-2-((5-cyanopyridin-3-yl)methoxy)-4-((3′-(3-((R)-3-hydroxypyrrolidin-1-yl)propoxy)-2-methyl-2′-(trifluoromethyl)-[1,1′-biphenyl]-3-yl)methoxy)benzyl)piperidine-2-carboxylic Acid]
6 | 0.21 to 10 | Cc1c(COc2cc(OCc3cncc(C#N)c3)c(CN3CCCC[C@H]3C(=O)O)cc2Cl)cccc1-c1cccc(OCCCN2CCCCC2C(N)=O)c1C (stereo partly drawn) [Example 2244, (2S)-1-(4-((3′-(3-(2-carbamoylpiperidin-1-yl)propoxy)-2,2′-dimethylbiphenyl-3-yl)methoxy)-5-chloro-2-((5-cyanopyridin-3-yl)methoxy)benzyl)piperidine-2-carboxylic Acid]
7 | 0.21 to 10 | Cc1c(COc2cc(OCc3cncc(C#N)c3)c(CN3CCCC[C@H]3C(=O)O)cc2Cl)cccc1-c1cccc(OCCCN2CCN(CC(=O)NC(C)C)CC2)c1C [Example 2217, (2S)-1-(5-chloro-2-((5-cyanopyridin-3-yl)methoxy)-4-((3′-(3-(4-(2-(isopropylamino)-2-oxoethyl)piperazin-1-yl)propoxy)-2,2′-dimethylbiphenyl-3-yl)methoxy)benzyl)piperidine-2-carboxylic Acid]
8 | 0.21 to 10 | Cc1c(COc2cc(OCc3cncc(C#N)c3)c(CNC(C)(CO)CO)cc2Cl)cccc1-c1cccc(OCCCN2CC[C@@H](O)C2)c1Cl [Example 2104, (R)-5-((4-chloro-5-((2′-chloro-3′-(3-(3-hydroxypyrrolidin-1-yl)propoxy)-2-methyl-[1,1′-biphenyl]-3-yl)methoxy)-2-(((1,3-dihydroxy-2-methylpropan-2-yl)amino)methyl)phenoxy)methyl)nicotinonitrile]
9 | 0.21 to 10 | Cc1c(COc2cc(OCc3cncc(S(C)(=O)=O)c3)c(CN3CCCC[C@H]3C(=O)O)cc2Cl)cccc1-c1cccc(OCCCN2CC(O)C(C(=O)O)C2)c1C (stereo partly drawn) [Example 1074, (2S)-1-(4-((3′-(3-(3-carboxy-4-hydroxypyrrolidin-1-yl)propoxy)-2,2′-dimethyl-[1,1′-biphenyl]-3-yl)methoxy)-5-chloro-2-((5-(methylsulfonyl)pyridin-3-yl)methoxy)benzyl)piperidine-2-carboxylic Acid]

The next lines start with the molecule.

Row | SMILES | IC50 [nM]
10 | Cc1c(COc2cc(OCc3cncc(C#N)c3)c(CNC[C@H](O)CO)cc2Cl)cccc1-c1cccc(OCCCN2CC[C@H](CO)[C@H](O)C2)c1Cl [Example 2031, 5-((4-chloro-5-((2′-chloro-3′-(3-((3 S,4R)-3-hydroxy-4-(hydroxymethyl)piperidin-1-yl)propoxy)-2-methyl-[1,1′-biphenyl]-3-yl)methoxy)-2-((((S)-2,3-dihydroxypropyl)amino)methyl)phenoxy)methyl)nicotinonitrile] | 0.21 to 10
11 | Cc1c(COc2cc(OCc3cncc(C#N)c3)c(CNC(C)(CO)CO)cc2Cl)cccc1-c1cccc(OCC(CO)CO)c1Cl [Example 2079, 5-((4-chloro-5-((2′-chloro-3′-(3-hydroxy-2-(hydroxymethyl)propoxy)-2-methyl-[1,1′-biphenyl]-3-yl)methoxy)-2-(((1,3-dihydroxy-2-methylpropan-2-yl)amino)methyl)phenoxy)methyl)nicotinonitrile] | 0.21 to 10
12 | CCNC(=O)c1cccc(-c2cccc(COc3cc(OCc4cc(F)cc(F)c4)c(CN4C[C@H](O)C[C@H]4C(=O)O)cc3Cl)c2C)c1C [Example 4019, (2S,4R)-1-(5-chloro-2-((3,5-difluorobenzyl)oxy)-4-((3′-(ethylcarbamoyl)-2,2′-dimethyl-[1,1′-biphenyl]-3-yl)methoxy)benzyl)-4-hydroxypyrrolidine-2-carboxylic Acid] | 100 to 2000
13 | Cc1c(COc2cc(OCc3cncc(C(N)=O)c3)c(CN[C@](C)(CO)C(=O)O)cc2Cl)cccc1-c1cccc(OCCCN2CCC(O)(C(=O)O)C2)c1C (stereo partly drawn) [Example 1057, 1-(3-((3′-((5-((5-carbamoylpyridin-3-yl)methoxy)-4-((((R)-2-carboxy-1-hydroxypropan-2-yl)amino)methyl)-2-chlorophenoxy)methyl)-2,2′-dimethyl-[1,1′-biphenyl]-3-yl)oxy)propyl)-3-hydroxypyrrolidine-3-carboxylic Acid] | 0.21 to 10
14 | Cc1c(OCCCN2CC[C@@H](O)C2)cccc1-c1cccc(COc2cc(OCc3cncc(C#N)c3)c(CN[C@H](CO)C(=O)O)cc2Cl)c1 [Example 3016, (R)-2-((5-chloro-2-((5-cyanopyridin-3-yl)methoxy)-4-((3′-(3-((R)-3-hydroxypyrrolidin-1-yl)propoxy)-2′-methyl-[1,1′-biphenyl]-3-yl)methoxy)benzyl)amino)-3-hydroxypropanoic Acid] | 0.21 to 10
15 | COC(=O)C1(O)CCN(CCCOc2cccc(-c3cccc(COc4cc(OCc5cncc(S(C)(=O)=O)c5)c(CN[C@H](CO)C(=O)O)cc4Cl)c3C)c2C)C1 (stereo partly drawn) [Example 1056, (2R)-2-((5-chloro-4-((3′-(3-(3-hydroxy-3-(methoxycarbonyl)pyrrolidin-1-yl)propoxy)-2,2′-dimethyl-[1,1′-biphenyl]-3-yl)methoxy)-2-((5-(methylsulfonyl)pyridin-3-yl)methoxy)benzyl)amino)-3-hydroxypropanoic Acid] | 0.21 to 10
16 | CCC(CO)(CO)NCCCOc1cccc(-c2cccc(COc3cc(OCc4cncc(C#N)c4)c(CNC(CC)(CO)CO)cc3Cl)c2C)c1C [Example 2278, 5-((4-chloro-2-(((1-hydroxy-2-(hydroxymethyl)butan-2-yl)amino)methyl)-5-((3′-(3-((1-hydroxy-2-(hydroxymethyl)butan-2-yl)amino)propoxy)-2,2′-dimethyl-[1,1′-biphenyl]-3-yl)methoxy)phenoxy)methyl)nicotinonitrile] | 0.21 to 10
17 | Cc1c(COc2cc(OCc3cncc(C#N)c3)c(CNC(CO)CO)cc2Cl)cccc1-c1cccc(C(=O)NCCN2CCCC2)c1C [Example 4003, 3′-((2-chloro-5-((5-cyanopyridin-3-yl)methoxy)-4-(((1,3-dihydroxypropan-2-yl)amino)methyl)phenoxy)methyl)-2,2′-dimethyl-N-(2-(pyrrolidin-1-yl)ethyl)-[1,1′-biphenyl]-3-carboxamide] | 0.21 to 10
18 | Cc1c(COc2cc(OCc3cncc(C#N)c3)c(CNC(CO)(CO)CO)cc2Cl)cccc1-c1cccc(OCCCN2CCC(F)(F)C2)c1C [Example 4118, 5-((4-chloro-5-((3′-(3-(3,3-difluoropyrrolidin-1-yl)propoxy)-2,2′-dimethyl-[1,1′-biphenyl]-3-yl)methoxy)-2-(((1,3-dihydroxy-2-(hydroxymethyl)propan-2-yl)amino)methyl)phenoxy)methyl)nicotinonitrile] | 0.21 to 10
19 | Cc1c(COc2cc(OCc3cncc(C#N)c3)c(CN[C@](C)(CO)C(=O)O)cc2Cl)cccc1-c1cccc(OCCCN2CCC(O)(c3ccccc3)C2)c1C (stereo partly drawn) [Example 3038, (2R)-2-((5-chloro-2-((5-cyanopyridin-3-yl)methoxy)-4-((3′-(3-(3-hydroxy-3-phenylpyrrolidin-1-yl)propoxy)-2,2′-dimethyl-[1,1′-biphenyl]-3-yl)methoxy)benzyl)amino)-3-hydroxy-2-methylpropanoic Acid] | 0.21 to 10
20 | Cc1c(COc2cc(OCc3cncc(C#N)c3)c(CNC[C@H](O)CO)cc2Cl)cccc1-c1cccc(OCCCO)c1Cl [Example 2116, (S)-5-((4-chloro-5-((2′-chloro-3′-(3-hydroxypropoxy)-2-methyl-[1,1′-biphenyl]-3-yl)methoxy)-2-(((2,3-dihydroxypropyl)amino)methyl)phenoxy)methyl)nicotinonitrile] | 0.21 to 10
21 | Cc1c(COc2cc(OCc3cncc(C#N)c3)c(CN3CCC[C@H]3C(=O)O)cc2Cl)cccc1-c1cccc(C(=O)N(C)C)c1C [Example 4031, (5-chloro-2-((5-cyanopyridin-3-yl)methoxy)-4-((3′-(dimethylcarbamoyl)-2,2′-dimethyl-[1,1′-biphenyl]-3-yl)methoxy)benzyl)-L-proline] | 2010 to 10000
